Consider three compounds from US7253211B2, “(R)-chiral halogenated substituted fused heterocyclic amino compounds useful for inhibiting cholesterol ester transfer protein activity” (Pfizer Inc., priority 1999, dated 2007).

Data set [1] has as its system CETP. In words: Assay of CETP Inhibition In Vivo: CETP-mediated transfer in hamster. Also noted: species or system golden Syrian hamsters. As to conditions: single oral dose 10 mpk.
Description: Assay of CETP Inhibition In Vivo.
Male golden Syrian hamsters were maintained on a diet of chow containing 0.24% cholesterol for at least two weeks prior to the study. For animals receiving intravenous dosing immediately before the experiment, animals were anesthetized with pentobarbital. Anesthesia was maintained throughout the experiment. In-dwelling catheters were inserted into the jugular vein and carotid artery. At the start of the experiment all animals received 0.2 mL of a solution containing [^3H]CE-HDL into the jugular vein. […] After centrifugation, the resulting supernatant (25 μL) containing the HDL was analyzed for radioactivity using a liquid scintillation counter.
(§1) The percentage [^3H]CE transferred from HDL to LDL and VLDL (% transfer) was calculated based on the total radioactivity in equivalent plasma samples before precipitation.
Alternatively, conscious, non-anesthetized animals received an oral gavage dose of test compound as a suspension in 0.1% methyl cellulose in water. At a time determined for each compound at which plasma levels of the test substance reached their peak (Cmax) after oral dosing, the animals were anesthetized with pentobarbital and then dosed with 0.2 mL of a solution containing [^3H]CE-HDL into the jugular vein as described above. […]
A further data set addresses T1, human CETP (hCETP) (Homo sapiens, UniProt P11597).
T1 construct: expressed in transfected cells; host or cells: transgenic C57Bl/6 mice homozygous for the hCETP gene
T1 sequence (P11597 18-493): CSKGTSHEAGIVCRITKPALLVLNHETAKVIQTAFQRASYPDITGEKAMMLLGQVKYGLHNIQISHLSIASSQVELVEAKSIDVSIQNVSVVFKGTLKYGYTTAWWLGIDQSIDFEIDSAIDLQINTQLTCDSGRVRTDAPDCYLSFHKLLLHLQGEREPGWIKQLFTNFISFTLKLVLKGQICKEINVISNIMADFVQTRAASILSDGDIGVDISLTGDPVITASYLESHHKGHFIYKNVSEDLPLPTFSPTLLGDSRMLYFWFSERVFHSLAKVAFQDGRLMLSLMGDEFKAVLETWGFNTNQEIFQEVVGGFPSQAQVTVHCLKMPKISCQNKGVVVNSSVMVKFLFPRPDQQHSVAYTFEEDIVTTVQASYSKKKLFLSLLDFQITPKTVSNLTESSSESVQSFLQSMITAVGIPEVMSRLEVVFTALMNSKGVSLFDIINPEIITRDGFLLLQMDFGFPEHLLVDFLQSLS
Description: Assay of CETP Inhibition In Vivo: CETP-mediated transfer in hCETP mice. To be noted: single oral dose 60 mpk.

The test system of data set [2] is plasma HDL. In words: Assay of Plasma HDL Elevation In Vivo: lipoprotein profile in hamster. To be noted: oral dose 30 mpk qd, 5 days. Also noted: species or system Syrian Golden hamsters. The method, then: Assay of Plasma HDL Elevation In Vivo.
Syrian Golden hamsters were made hypercholesterolemic by feeding cholesterol supplemented chow for a minimum of two weeks, as described above. Test compounds were administered orally in selected aqueous or oil based vehicles for up to 1 week. Serum was obtained and analyzed by precipitation or size exclusion chromatography for the relative abundance of VLDL, LDL and HDL.

For data set [3], the system named is plasma HDL. In words: Assay of Plasma HDL Elevation In Vivo: lipoprotein profile in hCETP mice. Also noted: species or system C57b1 mouse expressing human CETP. To be noted: oral dose 30 mpk qd, 5 days. The method, then: Alternatively, a strain of C57b1 mouse was made to transgenicaly express human CETP. […] The hCETP mice were made hypercholesterolemic by feeding cholesterol and fat supplemented chow for a minimum of two weeks, as described above. Test compounds were administered orally in selected aqueous or oil based vehicles for up to 1 week. Serum was obtained and analyzed by size exclusion chromatography for the relative abundance of VLDL, LDL and HDL.

Data set [4] relates to plasma HDL. In words: Assay of Plasma HDL Elevation In Vivo: cynomologous monkeys. To be noted: oral gavage 10 mpk q.d. up to 11 days, corn oil based vehicle. How it is done:
Alternatively, cynomologous monkeys were maintained on a normal chow diet. […] Plasma levels of drug were detected throughout the experiment in treated animals at ranges of 0.1-1.5 μg/mL. Periodically, plasma samples were taken and analyzed for total cholesterol and HDL.

Data set [5] has as its system plasma HDL. In words: Assay of Plasma HDL Elevation In Vivo: rabbits. How it is done: Alternatively, rabbits were maintained on a normal chow diet. […] Plasma concentrations of drug were detected throughout the duration of the pump infusion in treated animals and averaged 1.2 μg/mL. Periodically, plasma samples were taken and analyzed for triglycerides, total cholesterol, and HDL.

Data set [6] addresses T2, CETP (Homo sapiens, UniProt P11597).
T2 sequence (P11597 18-493): T1 sequence (P11597 18-493)
Description: Assay of CETP Inhibition Using Purified Components (Reconstituted Buffer Assay). The class given is biochemical. Also noted: made in house; host or cells: CHO cells (serum-free conditioned medium). As to conditions: Reconstituted Buffer Assay; read-out: IC50. The method, then: Assay of CETP Inhibition Using Purified Components (Reconstituted Buffer Assay)
The ability of compounds to inhibit CETP activity was assessed using an in vitro assay that measured the rate of transfer of radiolabeled cholesteryl ester ([^3H]CE) from HDL donor particles to LDL acceptor particles. Details of the assay are provided by Glenn, K. C. et al. (Glenn and Melton, “Quantification of Cholesteryl Ester Transfer Protein (CETP): A) CETP Activity and B) Immunochemical Assay of CETP Protein,” Meth. […] To measure CETP activity, [^3H]CE-labeled-HDL, LDL, CETP and assay buffer (50 mM tris(hydroxymethyl)aminomethane, pH 7.4; 150 mM sodium chloride; 2 mM ethylenediamine-tetraacetic acid (EDTA); 1% bovine serum albumin) were incubated in a final volume of 200 μL, for 2 hours at 37° C. in 96 well plates. […] The inhibitors were then diluted 1:1 with CETP in assay buffer, and then 25 μL of that solution was mixed with 175 μL of lipoprotein pool for assay. Following incubation, LDL was differentially precipitated by the addition of 50 μL of 1% (w/v) dextan sulfate/0.5 M magnesium chloride, mixed by vortex, and incubated at room temperature for 10 minutes. A potion of the solution (200 μL) was transferred to a filter plate (Millipore). After filtration, the radioactivity present in the precipitated LDL was measured by liquid scintillation counting.
This value was defined as the IC50.

Data set [7] deals with T2, CETP. Description: Assay of CETP Inhibition in Human Plasma. As to conditions: human EDTA plasma pool, [3H]CE-HDL, 37° C., 4 hours. The class given is biochemical. Also noted: Blood was obtained from healthy volunteers; from tissue; host or cells: human EDTA plasma pool from healthy volunteers. How it is done:
Assay of CETP Inhibition in Human Plasma
Blood was obtained from healthy volunteers, recruited from the personnel of Monsanto Company, Saint Louis, Mo. Blood was collected in tubes containing EDTA (EDTA plasma pool). The EDTA human plasma pool, previously stored at −20° C., was thawed at room temperature and centrifuged for 5 minutes to remove any particulate matter. […] Equal volumes (396 μL) of the plasma containing the [^3H]CE-HDL were added by pipette into micro tubes (Titertube®, Bio-Rad laboratories, Hercules, Calif.). Inhibitor compounds, dissolved as 20-50 mM stock solutions in DMSO, were serially diluted in DMSO (or an alternative solvent in some cases, such as dimethylformamide or ethanol). Four μL of each of the serial dilutions of inhibitor compounds or DMSO alone were then added to each of the tubes containing plasma (396 μL). After mixing, triplicate aliquots (100 μL) from each plasma tube were then transferred to wells of 96-well round-bottomed polystyrene microtiter plates (Corning, Corning, N.Y.). Plates were sealed with plastic film and incubated at 37° C. for 4 hours. “Test” samples contained plasma with dilutions of inhibitor compounds. “Control” samples contained plasma with DMSO diluted to the same concentration as the test samples, but without inhibitor. “Blank” samples were prepared as “control” samples, but were left in the micro tubes at 4° C. for the 4 hour incubation and were then added to the microtiter wells at the end of the incubation period. VLDL and LDL were precipitated by the addition of 10 μL of precipitating reagent (1% (w/v) dextran sulfate (Dextralip50)/0.5 M magnesium chloride, pH 7.4) to all wells. The wells were mixed on a plate mixer and then incubated at ambient temperature for 10 min. The plates were then centrifuged at 1000×g for 30 min at 10° C. The supernatants (50 μL) from each well were then transferred to Picoplate™ 96 plate wells (Packard, Meriden, Conn.) containing Microscint™-40 (Packard, Meriden, Conn.). The plates were heat-sealed (TopSeal™-P, Packard, Meriden, Conn.) according to the manufacturer's directions and mixed for 30 min. Radioactivity was measured on a microplate scintillation counter (TopCount, Packard, Meriden, Conn.). The maximum percentage transfer in the control wells (% transfer) was determined using the following equation:
[formula] The percentage of transfer relative to the control (% control) was determined in the wells containing inhibitor compounds was determined as follows:
[formula] IC50 values were then calculated from plots of % control versus concentration of inhibitor compound.

Setting [8] is: Alzet pump 30 mg/day/animal, after fourteen days.

Description for human CETP (hCETP): C57B1/6 mice that were homozygous for the hCETP gene were maintained on a high fat chow diet, such as TD 88051, as described by Nishina et al. (J Lipid Res., 31, 859-869 (1990)) for at least two weeks prior to the study. Mice received an oral gavage dose of test compound as a suspension in 0.1% methyl cellulose in water or an intravenous bolus injection of test compound in 10% ethanol and 90% polyethylene glycol. Control animals received the vehicle solution without test compound by oral gavage or by an intravenous bolus injection. At the start of the experiment all animals received 0.05 mL of a solution containing [^3H]CE-HDL into the tail vein. [^3H]CE-HDL is a preparation of human HDL containing tritium-labeled cholesteryl ester, and was prepared according to the method of Glenn et al. (Meth. Enzymol., 263, 339-351 (1996)). After 30 minutes, the animals were exsanguinated and blood collected in standard microtainer tubes containing ethylenediamine tetraacetic acid. Blood samples were mixed well and kept on ice until the completion of the experiment. […] The plasma was separated and analyzed by gel filtration chromatography and the relative proportion of [^3H]CE in the VLDL, LDL and HDL regions was determined.
as §1

Regarding `CCc1cc(Oc2cccc(N(Cc3cccc(OC(F)(F)C(F)F)c3)C[C@@H](O)C(F)(F)F)c2)ccc1Cl` [Example 8, (2R)-3-[[3-(4-chloro-3-ethylphenoxy)phenyl][[3-(1,1,2,2-tetrafluoro-ethoxy)phenyl]methyl]amino]-1,1,1-trifluoro-2-propanol], the “% Inhibition of Transfer” value with CETP [1] stood at 35%. For the same compound, testing at 60 mg/kg at human CETP (hCETP) gave an inhibition of 40%. For the same compound, in the data set on plasma HDL [2], the “% Change in Lipoprotein Profile HDL” value came out at 12%, the “% Change in Lipoprotein Profile LDL” value is given as −12% and the “% Change in Lipoprotein Profile VLDL” value is reported as −22%. Besides, in the data set on plasma HDL [3], the “% Change in Lipoprotein Profile HDL” value is given as 12% and the “% Change in Lipoprotein Profile LDL” value is reported as 20%. Besides, in the data set on plasma HDL [4], the “Plasma levels of drug” value lay in the range of 100 to 1500 ng/mL. Besides, the “Plasma concentrations of drug (average)” value in the data set on plasma HDL [5] (Alzet pump 30 mg/day/animal up to 14 days, ethanol:propylene glycol vehicle) came out at 1200 ng/mL. Also, in the data set on plasma HDL [5] (setting [8]), the “decrease in HDL compared to pre-dose levels” value worked out at 12%, the “decrease in total cholesterol compared to pre-dose levels” value came out at 19% and the “increase in triglycerides compared to pre-dose levels” value was determined as 17%.

For `O[C@H](CN(Cc1cccc(OC(F)(F)F)c1)c1cccc(Oc2ccc(F)cc2)c1)C(F)(F)F` [Example 42], the IC50 (in general, the concentration needed to halve the response being measured) stood at 380 nM on CETP [6] and 11000 nM against CETP [7].

Regarding `O[C@H](CN(Cc1cccc(OC(F)(F)C(F)F)c1)c1cccc(Oc2cc(F)ccc2Br)c1)C(F)(F)F` [Example 43, (2R)-3-[[3-(2-bromo-5-fluorophenoxy)phenyl][[3-(1,1,2,2-tetrafluoroethoxy)phenyl]methyl]amino]-1,1,1-trifluoro-2-propanol], the IC50 at CETP [6] came to 58 nM; against CETP [7] it was 1500 nM.
